Test results from patent publication US7166612B2, “Methods for reducing platelet activation platelet aggregaton or thrombosis” (Beth Israel Deaconess Medical Center, priority 2001, dated 2007).

Columns and labels:
[1] = system: thromboemboli from laser-induced thrombi; experiment: thromboembolization from laser-induced thrombi (intravital videomicroscopy); format: in vivo, mouse
Protocol: (A) Thromboembolic events distal from the thrombus were captured using quantitative intravital fluorescence videomicroscopy with high temporal resolution( (111 frames/second) and the total amount of thromboembolization was calculated by determining the total fluorescence intensity of the fluorescently labeled platelets in thromboemboli. (B) Thromboembolization was recorded before infusion of pyridazinone compound. Platelet accumulation into thrombus is indicated by the gray line. Thromboembolism from the same thrombus is measured over time and is indicated by black bars. Each black bar represents a single thromboembolic event of the indicated fluorescent intensity.
Under these conditions, a dynamic thrombus that undergoes continuous cyclic embolization and re-accumulation is observed. The degree of embolization in an untreated mouse can be quantified using software for image analysis, e.g., BioQuant True Color Windows (Biometrics, Nashville, Tenn.), as described in Rosen et al., 2001, supra. […]
Using quantitative intravital fluorescence videomicroscopy with high temporal resolution, thromboemboli were detected and the total amount of fluorescence of the thromboemboli was measured (FIG. 11A). For this analysis, thromboembolus was defined as a platelet aggregate with a fluorescent intensity two standard deviations above the maximum background fluorescence of the arteriole before injury. […]

platelet GPIIbIIIa = experiment: SFLLR-induced GPIIbIIIa activation (PAC-1 antibody, flow cytometry); format: cell-based, human; settings: in words
Protocol: In order to assay platelet activation by cell surface marker expression, fresh PRP is isolated from donors who have not ingested aspirin for two weeks prior to donation. PRP (40 μl) is incubated with known or suspected inhibitor in DMSO or DMSO alone for 15 min. The sample is then incubated with the indicated agonist (e.g., SFLLR) for 10 min. Following incubation of the sample with the indicated agonist, 10 μl of reaction mixture is transferred to 5 μl of phycoerythrin (PE)-conjugated AC 1.2 anti-P-selectin antibody (for assessment of P-selectin surface expression) or fluorescein isothiocyanate (FITC)-conjugated PAC-1 antibody (for assessment of GPIIbIIIa activation). PBS (500 μl) is added to the sample after a 20 min incubation and the platelets are analyzed immediately by flow cytometry. […] A 530/30 band pass filter is used for FL-1 fluorescence. A 585/42 band pass filter is used for FL-2 fluorescence. FITC is measured in the FL-1 channel and PE is measured in the FL-2 channel. Data are analyzed using, for example, CellQuest software on a Macintosh PowerPC, or their equivalents.
Compounds were also tested by flow cytometry for the inhibition of SFLLR-induced GPIIbIIIa activation and P-selectin expression. […] PBS (500 μl) was added to the sample after a 20 min incubation and the platelets were analyzed immediately by flow cytometry. […] A 530/30 band pass filter was used for FL-1 fluorescence. […]

human platelet PDE3 = target: T1, human platelet PDE3 (Homo sapiens, UniProt Q14432); experiment: phosphodiesterase inhibition, PDE3; format: biochemical
T1 construct: from tissue; host or cells: human platelets
Protocol: (§1) Intracellular cAMP generated by adenylyl cyclase in platelets is actively hydrolyzed by phosphodiesterase. […] Human platelets express PDE2, PDE3, and PDE5. Therefore, the compound was tested for its inhibitory effect on these phosphodiesterases using methods as described in Example 3.

human platelet PDE5 = target: T2, human platelet PDE5 (Homo sapiens, UniProt O76074); experiment: phosphodiesterase inhibition, PDE5; format: biochemical; settings: up to 1 μM, in words
T2 construct: from tissue; host or cells: human platelets
Protocol: as §1

recombinant human PDE2 = recombinant human PDE2 (Homo sapiens, UniProt O00408); experiment: phosphodiesterase inhibition, PDE2; format: biochemical; settings: up to 1 μM, in words
Protocol: as §1

[2] = listed as Pyridazinone compound
[3] = listed as pyridazinone compound

Sequence of recombinant human PDE2 (O00408 whole entry): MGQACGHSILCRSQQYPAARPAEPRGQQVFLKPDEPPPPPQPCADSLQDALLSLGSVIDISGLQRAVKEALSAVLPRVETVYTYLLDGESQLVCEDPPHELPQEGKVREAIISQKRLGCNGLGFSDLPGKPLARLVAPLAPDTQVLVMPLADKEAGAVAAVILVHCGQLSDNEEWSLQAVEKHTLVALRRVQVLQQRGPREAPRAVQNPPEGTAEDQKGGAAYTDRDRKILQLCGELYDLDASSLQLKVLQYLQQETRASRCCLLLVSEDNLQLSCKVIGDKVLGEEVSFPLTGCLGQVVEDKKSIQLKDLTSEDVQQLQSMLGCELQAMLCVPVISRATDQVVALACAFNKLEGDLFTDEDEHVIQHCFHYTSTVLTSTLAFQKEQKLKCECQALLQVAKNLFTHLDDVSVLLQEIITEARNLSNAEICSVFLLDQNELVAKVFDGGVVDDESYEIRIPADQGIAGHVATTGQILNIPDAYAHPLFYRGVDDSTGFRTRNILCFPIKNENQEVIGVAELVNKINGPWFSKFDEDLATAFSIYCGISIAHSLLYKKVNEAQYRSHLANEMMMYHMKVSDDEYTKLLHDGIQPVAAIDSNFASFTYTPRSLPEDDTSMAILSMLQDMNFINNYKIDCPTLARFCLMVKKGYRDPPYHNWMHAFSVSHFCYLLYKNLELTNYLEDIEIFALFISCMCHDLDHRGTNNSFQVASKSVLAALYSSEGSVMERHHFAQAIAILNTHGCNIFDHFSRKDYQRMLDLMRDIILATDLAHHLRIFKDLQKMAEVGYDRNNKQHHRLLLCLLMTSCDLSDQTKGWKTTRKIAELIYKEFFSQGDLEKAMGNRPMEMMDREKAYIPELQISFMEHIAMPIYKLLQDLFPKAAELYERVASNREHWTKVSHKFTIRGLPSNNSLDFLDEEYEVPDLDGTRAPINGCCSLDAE
T1 sequence (Q14432 whole entry): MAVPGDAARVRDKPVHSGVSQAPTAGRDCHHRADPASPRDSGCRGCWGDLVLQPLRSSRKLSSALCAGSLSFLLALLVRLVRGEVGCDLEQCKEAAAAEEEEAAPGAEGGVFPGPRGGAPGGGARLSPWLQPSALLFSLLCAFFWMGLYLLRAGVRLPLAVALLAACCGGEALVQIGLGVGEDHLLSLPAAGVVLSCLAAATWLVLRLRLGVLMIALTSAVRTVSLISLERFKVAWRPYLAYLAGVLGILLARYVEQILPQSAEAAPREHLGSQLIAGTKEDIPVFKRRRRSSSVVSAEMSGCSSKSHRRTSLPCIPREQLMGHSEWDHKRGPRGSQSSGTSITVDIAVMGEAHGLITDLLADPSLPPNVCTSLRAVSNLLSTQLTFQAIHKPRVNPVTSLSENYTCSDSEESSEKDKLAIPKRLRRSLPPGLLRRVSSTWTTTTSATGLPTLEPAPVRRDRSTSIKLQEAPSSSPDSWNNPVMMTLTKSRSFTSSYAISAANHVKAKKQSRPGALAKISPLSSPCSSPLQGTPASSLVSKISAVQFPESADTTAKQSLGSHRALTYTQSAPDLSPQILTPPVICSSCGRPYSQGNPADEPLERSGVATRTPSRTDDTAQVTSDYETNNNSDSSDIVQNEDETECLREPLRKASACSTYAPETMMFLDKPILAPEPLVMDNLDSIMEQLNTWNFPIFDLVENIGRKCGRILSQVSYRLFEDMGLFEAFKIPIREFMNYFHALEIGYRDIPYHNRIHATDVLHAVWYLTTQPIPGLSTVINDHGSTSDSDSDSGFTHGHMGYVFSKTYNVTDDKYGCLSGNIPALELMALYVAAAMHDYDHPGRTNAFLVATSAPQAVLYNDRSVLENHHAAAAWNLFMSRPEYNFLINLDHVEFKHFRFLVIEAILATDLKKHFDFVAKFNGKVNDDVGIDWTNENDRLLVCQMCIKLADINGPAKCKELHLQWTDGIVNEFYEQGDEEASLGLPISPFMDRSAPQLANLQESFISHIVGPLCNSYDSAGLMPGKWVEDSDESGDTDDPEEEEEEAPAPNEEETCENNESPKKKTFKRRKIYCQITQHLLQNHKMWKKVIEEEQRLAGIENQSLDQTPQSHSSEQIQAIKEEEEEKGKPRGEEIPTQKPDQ

## CC1CC(=O)NN=C1c1ccc(N)c([N+](=O)[O-])c1 (centres unmarked) [6-(4-Amino-3-nitro-phenyl)-5-methyl-4,5-dihydro-2H-pyridazin-3-one]
[1]; 1.2 mg/kg, in words
  thromboembolization after infusion: significantly reduced
[1]; after injection of compound
  reduction of embolization: greater than 80%
Platelet GPIIbIIIa
  SFLLR-induced αIIbβ3 activation measured using PAC-1 antibodies: inhibited
Human platelet PDE3
  IC50: 15 nM
Human platelet PDE5; [2]
  inhibition of human platelet PDE5: No significant inhibition
Human platelet PDE5; [3]
  inhibition of human platelet PDE5: little inhibition
Recombinant human PDE2; [2]
  inhibition of recombinant human PDE2: No significant inhibition
Recombinant human PDE2; [3]
  inhibition of recombinant human PDE2: little inhibition
